The assay concerns HSV-1. Briefly: HSV infection of Vero 76 cells, viral DNA detected by hybridization capture with chemiluminescence. It is filed as cell-based. The following applies: Human alphaherpesvirus 1; HSV-1 in Vero 76 cells, MOI=0.001, incubated 40–48 hours with test compound. As for the experimental part:
Vero 76 cells were maintained in MEM with Earle's salts, L-glutamine, 8% FBS (Hyclone, A-1111-L) and 100 units/mL Penicillin-100 μg/mL Streptomycin. For assay conditions, FBS was reduced to 2%. Cells are seeded into 96-well tissue culture plates at a density of 5×10^4 cells/well after being incubated for 45 min at 37° C. in the presence of HSV-1 or HSV-2 (MOI=0.001). Test compounds are added to the wells and the plates are incubated at 37° C. for 40–48 hours. Cell lysates are prepared as follows: media was removed and replaced with 150 μL/well 0.2 N NaOH with 1% Igepal CA 630 or NP-40. Plates were incubated up to 14 days at room temperature in a humidified chamber to prevent evaporation.
For the detection probe, a gel-purified, digoxigenin-labeled, 710-bp PCR fragment of the HSV UL-15 sequence was utilized. PCR conditions included 0.5 μM primers, 180 μM dTTP, 20 μM dUTP-digoxigenin (Boehringer Mannheim 1558706), 200 μM each of dATP, dCTP, and dGTP, 1×PCR Buffer II (Perkin Elmer), 2.5 mM MgCl2, 0.025 units/μL of AmpliTaq Gold polymerase (Perkin Elmer), and 5 ng of gel-purified HSV DNA per 100 μL Extension conditions were 10 min at 95° C., followed by 30 cycles of 95° C. for 1 min, 55° C. for 30 sec, and 72° C. for 2 min. The amplification was completed with a 10-min incubation at 72° C. Primers were selected to amplify a 728 bp probe spanning a section of the HSV1 UL15 open reading frame (nucleotides 249–977). Single-stranded transcripts were purified with Promega M13 Wizard kits. The final product was mixed 1:1 with a mixture of 6 M GuSCN, 100 mM EDTA and 200 μg/mL herring sperm DNA and stored at 4° C.
The capture DNA plasmid (HSV UL13 region in pUC) was linearized by cutting with XbaI, denatured for 15 min at 95° C. and diluted immediately into Reacti-Bind DNA Coating Solution (Pierce, 17250, diluted 1:1 with TE buffer, pH 8) at 1 ng/μL 75 μL/well were added to Corning (#3922 or 9690) white 96-well plates and incubated at room temperature for at least 4 hrs before washing twice with 300 μL/well 0.2×SSC/0.05% Tween-20 (SSC/T buffer). The plates were then incubated overnight at room temperature with 150 μL/well 0.2 N NaOH, 1% IGEPAL and 10 μg/mL herring sperm DNA.
Twenty-seven (27) μL of cell lysate was combined with 45 μL of hybridization solution (final concentration: 3M GuSCN, 50 mM EDTA, 100 μg/ml salmon sperm DNA, 5×Denhardt's solution, 0.25×APE, and 5 ng of the digoxigenin-labeled detection probe). APE is 1.5 M NH4-acetate, 0.15 M ammonium phosphate monobasic, and 5 mM EDTA adjusted to pH 6.0. Mineral oil (50 μL) was added to prevent evaporation. The hybridization plates were incubated at 95° C. for 10 minutes to denature the DNA, then incubated at 42° C. overnight. The wells were washed 6× with 300 μL/well SSC/T buffer then incubated with 75 μL/well anti-digoxigenin-HRP-conjugated antibody (Boehringer Mannheim 1207733, 1:5000 in TE) for 30 min at room temperature. The wells were washed 6× with 300 μL/well with PBS/0.05% Tween-20 before 75 μL/well SuperSignal LBA substrate (Pierce) was added. The plates were incubated at room temperature for 30 minutes and chemiluminescence was measured in a Wallac Victor reader.
On to `Nc1cccn2c(-c3ccnc(NC4CCCC4)n3)c(-c3ccc(F)cc3)nc12` [Example 1, 3-[2-(Cyclopentylamino)-4-pyrimidinyl]-2-(4-fluorophenyl)imidazo[1,2-α]pyridin-8-amine], for which half-maximal inhibition (IC50) was put at 600 nM. In the case of `Fc1ccc(-c2nc3c(Cl)cccn3c2-c2ccnc(NC3CCCC3)n2)cc1` [Example 2, 4-[8-Chloro-2-(4-fluorophenyl)imidazo[1,2-α]pyridin-3-yl]-N-cyclopentyl-2-pyrimidinamine] it was 3900 nM; in that of `Fc1ccc(-c2nc3c(NC4CCCC4)cccn3c2-c2ccnc(NC3CCCC3)n2)cc1` [Example 3, N-Cyclopentyl-3-[2-(cyclopentylamino)-4-pyrimidinyl]-2-(4-fluorophenyl)imidazo[1,2-α]pyridin-8-amine], 400 nM; in that of `Fc1ccc(-c2nc3c(N4CCCC4)cccn3c2-c2ccnc(NC3CCCC3)n2)cc1` [Example 4, N-Cyclopentyl-4-[2-(4-fluorophenyl)-8-(1-pyrrolidinyl)imidazo[1,2-α]pyridin-3-yl]-2-pyrimidinamine], 1400 nM. For `CCCCNc1cccn2c(-c3ccnc(NC4CCCC4)n3)c(-c3ccc(F)cc3)nc12` [Example 5, N-Butyl-3-[2-(cyclopentylamino)-4-pyrimidinyl]-2-(4-fluorophenyl)imidazo[1,2-α]pyridin-8-amine] the value was 650 nM; for `COCCNc1cccn2c(-c3ccnc(NC4CCCC4)n3)c(-c3ccc(F)cc3)nc12` [Example 6, 3-[2-(Cyclopentylamino)-4-pyrimidinyl]-2-(4-fluorophenyl)-N-(2-methoxyethyl)imidazo[1,2-α]pyridin-8-amine], 340 nM. In the case of `CNc1nccc(-c2c(-c3ccc(F)cc3)nc3c(Cl)cccn23)n1` [Example 7, 4-[8-Chloro-2-(4-fluorophenyl)imidazo[1,2-α]pyridin-3-yl]-N-methyl-2-pyrimidinamine] it was 2400 nM; in that of `CNc1nccc(-c2c(-c3ccc(F)cc3)nc3c(NC4CCCC4)cccn23)n1` [Example 8, N-Cyclopentyl-2-(4-fluorophenyl)-3-[2-(methylamino)-4-pyrimidinyl]imidazo[1,2-α]pyridin-8-amine], greater than 5000 nM. Take `COc1ccc(-c2nc3c(Cl)cccn3c2-c2ccnc(NC3CCCC3)n2)cc1` [Example 9, 4-[8-Chloro-2-(4-methoxyphenyl)imidazo[1,2-α]pyridin-3-yl]-N-cyclopentyl-2-pyrimidinamine]: the IC50 (usually the concentration at which inhibition is half-maximal) is 1200 nM. In the case of `COc1ccc(-c2nc3c(NC4CCCC4)cccn3c2-c2ccnc(NC3CCCC3)n2)cc1` [Example 10, N-Cyclopentyl-3-[2-(cyclopentylamino)-4-pyrimidinyl]-2-(4-methoxyphenyl)imidazo[1,2-α]pyridin-8-amine], half-maximal inhibition (IC50) was put at 1750 nM.

With `Oc1ccc(-c2nc3c(NC4CCCC4)cccn3c2-c2ccnc(NC3CCCC3)n2)cc1` [Example 11, 4-{8-(Cyclopentylamino)-3-[2-(cyclopentylamino)-4-pyrimidinyl]imidazo[1,2-α]pyridin-2-yl}phenol], it took 3300 nM to reach half-maximal inhibition (IC50).

The molecule `COc1cccc(-c2nc3c(Cl)cccn3c2-c2ccnc(NC3CCCC3)n2)c1` [Example 15, 4-[8-Chloro-2-(3-methoxyphenyl)imidazo[1,2-α]pyridin-3-yl]-N-cyclopentyl-2-pyrimidinamine] had an IC50 of 2300 nM. This IC50 and that of the molecule before are within 1.5-fold of each other. For `COc1cccc(-c2nc3c(NC4CCCC4)cccn3c2-c2ccnc(NC3CCCC3)n2)c1` [Example 16, N-Cyclopentyl-3-[2-(cyclopentylamino)-4-pyrimidinyl]-2-(3-methoxyphenyl)imidazo[1,2-α]pyridin-8-amine] the value was 370 nM.

Take `Oc1cccc(-c2nc3c(NC4CCCC4)cccn3c2-c2ccnc(NC3CCCC3)n2)c1` [Example 17, 3-{8-(Cyclopentylamino)-3-[2-(cyclopentylamino)-4-pyrimidinyl]imidazo[1,2-α]pyridin-2-yl}phenol]: the half-maximal inhibitory concentration (IC50) came out at 3100 nM. As for `C=CCOc1cccc(-c2nc3c(NC4CCCC4)cccn3c2-c2ccnc(NC3CCCC3)n2)c1` [Example 18, 2-[3-(Allyloxy)phenyl]-N-cyclopentyl-3-[2-(cyclopentylamino)-4-pyrimidinyl]imidazo[1,2-α]pyridin-8-amine], half-maximal inhibition (IC50) required 340 nM. For `Cc1ccc(-c2nc3c(Cl)cccn3c2-c2ccnc(NC3CCCC3)n2)cc1` [Example 19, 4-[8-Chloro-2-(4-methylphenyl)imidazo[1,2-α]pyridin-3-yl]-N-cyclopentyl-2-pyrimidinamine] the value was 3740 nM. Consider `Cc1ccc(-c2nc3c(NC4CCCC4)cccn3c2-c2ccnc(NC3CCCC3)n2)cc1` [Example 20, N-Cyclopentyl-3-[2-(cyclopentylamino)-4-pyrimidinyl]-2-(4-methylphenyl)imidazo[1,2-α]pyridin-8-amine], for which inhibition was half-maximal at 710 nM (IC50). For `COCCNc1cccn2c(-c3ccnc(NC4CCCC4)n3)c(-c3ccc(C)cc3)nc12` [Example 21, 3-[2-(Cyclopentylamino)-4-pyrimidinyl]-N-(2-methoxyethyl)-2-(4-methylphenyl)imidazo[1,2-α]pyridin-8-amine] the value was 640 nM.

`Cc1ccc(-c2nc3c(N4CCOCC4)cccn3c2-c2ccnc(NC3CCCC3)n2)cc1` [Example 22, N-Cyclopentyl-4-[2-(4-methylphenyl)-8-(4-morpholinyl)imidazo[1,2-α]pyridin-3-yl]-2-pyrimidinamine] gave an IC50 of 840 nM. For `Clc1cccn2c(-c3ccnc(NC4CC4)n3)c(-c3ccc4ccccc4c3)nc12` [Example 23, 4-[8-Chloro-2-(2-naphthyl)imidazo[1,2-α]pyridin-3-yl]-N-cyclopropyl-2-pyrimidinamine] the value was 210 nM. As to `c1ccc2cc(-c3nc4c(NC5CC5)cccn4c3-c3ccnc(NC4CC4)n3)ccc2c1` [Example 24, N-Cyclopropyl-3-[2-(cyclopropylamino)-4-pyrimidinyl]-2-(2-naphthyl)imidazo[1,2-α]pyridin-8-amine], the IC50 came out at 560 nM. Compared with the last molecule, the IC50 is about 2.7-fold higher. In the case of `N#Cc1ccc(-c2nc3c(Cl)cccn3c2-c2ccnc(NC3CCCC3)n2)cc1` [Example 25, 4-{8-Chloro-3-[2-(cyclopentylamino)-4-pyrimidinyl]imidazo[1,2-α]pyridin-2-yl}benzonitrile] it was 300 nM. In the case of `N#Cc1ccc(-c2nc3c(NC4CCCC4)cccn3c2-c2ccnc(NC3CCCC3)n2)cc1` [Example 26, 4-{8-(Cyclopentylamino)-3-[2-(cyclopentylamino)-4-pyrimidinyl]imidazo[1,2-α]pyridin-2-yl}benzonitrile] it was 310 nM; in that of `N#Cc1ccc(-c2nc3c(N4CCOCC4)cccn3c2-c2ccnc(NC3CCCC3)n2)cc1` [Example 27, 4-[3-[2-(Cyclopentylamino)-4-pyrimidinyl]-8-(4-morpholinyl)-imidazo[1,2-α]pyridin-2-yl]benzonitrile], 200 nM; in that of `NC(=O)c1ccc(-c2nc3c(N4CCOCC4)cccn3c2-c2ccnc(NC3CCCC3)n2)cc1` [Example 28, 4-[3-[2-(Cyclopentylamino)-4-pyrimidinyl]-8-(4-morpholinyl)imidazo[1,2-α]pyridin-2-yl]benzamide], 6300 nM. Molecule `NC(=O)c1ccc(-c2nc3c(NC4CCCC4)cccn3c2-c2ccnc(NC3CCCC3)n2)cc1` [Example 29, 4-{8-(Cyclopentylamino)-3-[2-(cyclopentylamino)-4-pyrimidinyl]imidazo[1,2-α]pyridin-2-yl}benzamide] registered an IC50 greater than 5000 nM. For `O=[N+]([O-])c1cccc(-c2nc3c(Cl)cccn3c2-c2ccnc(NC3CCCC3)n2)c1` [Example 30, N-{4-[8-Chloro-2-(3-nitrophenyl)imidazo[1,2-α]pyridin-3-yl]-2-pyrimidinyl}-N-cyclopentylamine] the value was 1600 nM.

The values are drawn from patent US7186714B2, “Imidazo[1,2-α]pyridine derivatives for the prophylaxis and treatment of herpes viral infections” (SmithKline Beecham Corporation, priority 2001, dated 2007).
